Reference: patent US8664186B2, “Stambomycin and derivatives, their production and their uses as drugs” (Universite de Lorraine, priority 2009, dated 2014)
Where two headings read alike, the source gives them in different places.

What was measured:
CHO-K1 cells = assay: cytotoxicity using CHO-K1 cells; format: cell-based, Chinese hamster; conditions: Cricetulus griseus, CHO-K1 ovary sane cell line
Description: (§1) Cytotoxicity was tested using CHO-K1 cells and anti-proliferative activity was examined using HT29 cells.
(§2) The effects were compared with Doxorubicin and Sodium butyrate.

HT29 cells = assay: anti-proliferative activity using HT29 cells; format: cell-based, human
Description: as §1, §2

IC50 (HT29 cells; HT-29, HT29 human colon adenocarcinoma, read-out: IC50 (μM) for HT29) [µM] | Structure (SMILES) | IC50 (CHO-K1 cells) [µM] | IC50 (HT29 cells; Homo sapiens, HT-29, read-out: IC50 (μM) for HT29) [µM]
1.32 | COc1cccc2c1C(=O)c1c(O)c3c(c(O)c1C2=O)C[C@@](O)(C(=O)CO)C[C@@H]3O[C@H]1C[C@H](N)[C@H](O)[C@H](C)O1 [Doxorubicin] | 1.99 | 
 | CCCC(=O)[O-].[Na+] [Sodium butyrate] |  | 4890
